In PubChem BioAssay AID1996:
Converted amounts (≈) assume the structure as drawn.

details: buffer; pH 7.4; 200.0 µM

solubility kinetic [µg/mL] | SMILES
> 46.4 | Cc1c(C(=O)O)oc2ccc(S(=O)(=O)N3CCCC3)cc12
23.1 (≈ 70.3 µM) | COc1ccccc1NC(=O)C(C)N(C)CCOc1ccccc1 (stereo unspecified)
9.4 (≈ 37.7 µM) | CC(=O)c1sc(=S)n(-c2ccccc2)c1C
> 57.2 | NS(=O)(=O)c1cccc(NC(=O)CSc2nnc3n2CCCCC3)c1
< 0.1 | COc1ccc(-c2csc(Nc3ncccn3)n2)cc1C
> 47.8 | O=C(c1ccc(F)cc1)N1CCCC(C(=O)N2CCCCC2)C1 (stereo unspecified)
14.1 (≈ 43.6 µM) | O=C(CNC(=O)c1ccco1)Nc1ccc(Br)cc1
> 47.9 | CC(NCCC(Cc1ccccc1)c1ccco1)c1ccccc1 (stereo unspecified)
< 0.6 | COC(=O)c1sc(SC)c(-c2ccon2)c1C
> 36.9 | S=c1[nH]nc(C2(c3ccccc3)CCCC2)o1
> 39.5 | COc1ccc(NC(=O)Nc2ccon2)cc1OC
0.9 (≈ 2.84 µM) | COc1ccc(CN2C(=O)c3cccc4cccc(c34)C2=O)cc1
20.2 (≈ 54.7 µM) | COc1cccc(OCC(O)CNC(=O)c2oc3ccc(C)cc3c2C)c1 (stereo unspecified)
> 40.8 | CCN(CC)CCNC(=O)c1ccc(N)cc1.Cl
> 41.1 | Cc1ccc2c(c1)N(CC(=O)N1CCCC1)C(=O)CO2
> 39.7 | COc1ccc(C(=O)NC(=S)N2CCCC2)cc1
< 0.3 | COc1ccc(-c2nc(-c3cccs3)no2)cc1
< 0.2 | CCCc1cnc(N2CCN(S(=O)(=O)c3cccs3)CC2)nc1
12.5 (≈ 39.5 µM) | Cc1ccc(-c2csc(NC(=O)Cc3ccc(F)cc3)n2)o1
> 43.7 | COc1ccccc1NC(=O)C(C)Sc1nccn1C (stereo unspecified)
> 45 | O=[N+]([O-])c1ccc(N2CCN(c3ccc(O)cc3)CC2)cn1
> 58.4 | CNS(=O)(=O)c1cccc(C(=O)OCC(=O)c2ccc3[nH]c(=O)[nH]c3c2)c1

solubility kinetic [µg/mL] | SMILES
> 56.2 | CN(Cc1ccccc1Cl)C(=O)CNC(=O)C12CC3CC(CC(C3)C1)C2
8.8 (≈ 24.8 µM) | CCC(C)c1ccc(NC(=S)N2CCN(S(C)(=O)=O)CC2)cc1 (stereo unspecified)
11.4 (≈ 31.8 µM) | O=C(NCCNC(=O)c1ccccc1[N+](=O)[O-])c1ccccc1[N+](=O)[O-]
> 51.7 | CC(C)C1Oc2ccccc2N(CC(=O)N(C)C2CCCCC2)C1=O (stereo unspecified)
0.8 (≈ 2.51 µM) | COCc1cc(C)nc(SCc2ccc(Cl)cc2)c1C#N
41.8 (≈ 141 µM) | CNC(=S)NC(CC(=O)OC)c1ccc2c(c1)OCO2 (stereo unspecified)
27.4 (≈ 114 µM) | Cc1ccc(C(=O)NCCc2ccccc2)cc1
0.8 (≈ 2.51 µM) | Cc1ccc(/C=C2/SC(=Nc3ccc(F)cc3)NC2=O)s1
26.9 (≈ 99.5 µM) | OCCN1CCN(Cc2ccc3ccccc3c2)CC1
27.1 (≈ 103 µM) | Cc1cc(C(=O)Nc2sccc2C(N)=O)c(C)o1
> 35.3 | O=C1CS/C(=N\NC(=O)c2ccccc2)N1
73.5 (≈ 141 µM) | COc1cc(C(=O)OCC(=O)Nc2ccc(S(=O)(=O)NC3=NCCCCC3)cc2)cc(OC)c1OC
> 44.3 | COc1ccc(NC(=S)NCCN2CCOCC2)cc1
54 (≈ 147 µM) | O=C(OCC(=O)N1CCN(S(=O)(=O)c2ccccc2)CC1)C1CCC1
< 0.7 | Cc1ccc(C(C)C)c(OCCNC(=O)c2ccccc2O)c1
32.6 (≈ 110 µM) | Cc1ccc(-c2noc(CNC(=O)c3ccoc3C)n2)cc1
> 44.7 | COc1ccc(C(=O)CCN2CCCC(C)C2)cc1.Cl (stereo unspecified)
> 48.7 | COc1ccccc1N1CCN(C(=O)CCc2ccccc2)CC1
< 0.2 | Cc1[nH]c2nc3ccccc3n2c(=O)c1CCC(C)C
9.3 (≈ 28 µM) | COc1ccnc2c1c(=O)n(Cc1ccc(Cl)cc1)c(=O)n2C
> 58 | Cc1ccc(S(=O)(=O)CCC(=O)OCc2nnc(-c3ccccc3)o2)cc1
22.6 (≈ 58.9 µM) | COc1ccc(C(=O)NC2=Nc3ccccc3N=C(C)C2c2ccccc2)cc1 (stereo unspecified)

solubility kinetic [µg/mL] | SMILES
1.3 (≈ 4.06 µM) | O=C(NCc1ccc2c(c1)OCO2)Nc1ccc2ccccc2c1
> 39.6 | Cc1cccc(NC(=O)c2ccc3nccnc3c2)n1
1.9 (≈ 5.58 µM) | CCOc1ccc2[nH]cc(C(=O)NCc3ccc(F)cc3)c(=O)c2c1
47.6 (≈ 140 µM) | CC1(C)NC(=O)N(CCCCOc2ccc(Cl)cc2C=O)C1=O
> 63.4 | CC(Sc1nncs1)C(=O)Nc1ccc(S(=O)(=O)Nc2ncccn2)cc1 (stereo unspecified)
12.9 (≈ 40.5 µM) | O=C1CSC(c2ccccc2[N+](=O)[O-])N1c1cccc(F)c1 (stereo unspecified)
39.3 | CC1Cc2ccccc2N1C(=O)CN1CCCCC1.Cl (stereo unspecified)
0.4 (≈ 1.13 µM) | CCC/C(O)=C1\C(=O)CCCC1=NCCc1c(C)[nH]c2ccc(C)cc12
7.6 (≈ 23 µM) | Cc1ccc(-c2nc3ncccc3o2)cc1NC(=O)c1cccnc1
55.2 (≈ 132 µM) | O=C(CN1C(=O)NC2(CCc3ccccc32)C1=O)NCc1cccc(C(F)(F)F)c1 (stereo unspecified)
30 (≈ 105 µM) | CCNc1nc(SC(C)C(=O)OC)nc(N(C)C)n1 (stereo unspecified)
> 36.8 | Cc1cccc(C)c1N1C(=O)CCC(C)(C)C1=O
> 38.9 | O=[N+]([O-])c1cccc2c(N3CCOCC3)ccnc12
> 45.5 | N#CC1(NC(=O)COC(=O)c2nccnc2N)CCCCC1
> 43.6 | CN(C)C(=O)CN1c2cccc3cccc(c23)S1(=O)=O
> 46.3 | CCOc1ccc(S(=O)(=O)Nc2ccc(OC)nc2)cc1
0.4 (≈ 1.33 µM) | Cc1ccc(C)c(Cn2c(=O)n(C)c(=O)c3sccc32)c1
31.2 (≈ 111 µM) | Cc1ccc(C(=O)NCc2ccc3c(c2)CCO3)cc1C
< 0.6 | O=C(NC1CC1)c1cc2cc(Br)ccc2s1
1.3 (≈ 4.62 µM) | O=C(Nc1cccnc1)c1cc(-c2ccccc2O)on1
45.2 (≈ 130 µM) | Cc1cc(Cl)c(Cl)cc1S(=O)(=O)NCCCn1ccnc1
6.6 (≈ 21.7 µM) | COC(=O)c1sccc1NC(=O)Nc1ccc(C)cc1C

solubility kinetic [µg/mL] | SMILES
25.1 (≈ 91.5 µM) | Cc1ccc(CN2CCN(C(=O)CC(C)C)CC2)cc1
14.6 (≈ 34.2 µM) | O=C(CSc1ccccc1)Nc1ccc(Cl)c(S(=O)(=O)N2CCOCC2)c1
30.1 (≈ 133 µM) | CCCCNC(=S)Nc1ccc(F)cc1
28.9 (≈ 111 µM) | O=C(Nc1cc(Cl)ccc1Cl)C1CCCO1 (stereo unspecified)
> 58 | C=CCn1c(SCc2ccc(C(=O)O)cc2)nc2sc(C)c(C)c2c1=O
35 (≈ 111 µM) | COc1ccccc1/C=C1\SC(N2CCC(C)CC2)=NC1=O
> 58.7 | CC(NC(=O)COc1ccccc1)C(=O)NCc1ccc(S(N)(=O)=O)cc1 (stereo unspecified)
38.2 (≈ 144 µM) | COc1ccccc1OCCOCCN1CCCC1
48.3 (≈ 140 µM) | CCOC(=O)C1CCN(C(=O)c2[nH]c3ccc(OC)cc3c2C)CC1
47.1 (≈ 144 µM) | O=C(c1ccc(-c2cccc(Cl)c2Cl)o1)N1CCOCC1
> 34.8 | COc1ccc2[nH]cc(CCNC(C)=O)c2c1
> 29.1 | Cc1cc(C)c(NC(N)=S)c(C)c1
41 (≈ 140 µM) | O=C(CSCc1ccccc1)Nc1ccc(F)cc1F
8.5 (≈ 30.2 µM) | Cc1ccn2c(C=O)c(-c3ccc(F)cc3)c(C=O)c2c1
9 (≈ 23.2 µM) | CCCCC1CCC(C(=O)OC(C)C(=O)Nc2ccc(NC(C)=O)cc2)CC1 (stereo unspecified)
> 46.4 | Cc1ccc(C(=O)Nc2ccc(N3CCN(C)CC3)cc2)cc1
> 48.8 | O=C(CSc1nc2sc3c(c2c(=O)[nH]1)CCC3)NCCO
> 52.8 | CN(Cc1ccccc1)C(=O)COC(=O)c1ccc(Br)o1
54.7 (≈ 149 µM) | Cc1ccc(S(=O)(=O)N2CCN(CC(=O)N3CCOCC3)CC2)cc1

SMILES | solubility kinetic [µg/mL]
Cc1ccccc1OCCCCCCN1CCNCC1.O=C(O)C(=O)O | 49.5
